Patent US20070191319A1, “Treatment of conditions that present with low bone mass by continuous combination therapy with selective prostaglandin ep4 receptor agonists and an estrogen” (Pfizer Inc., priority 2003, published 2007)

Tested on: ovariectomized (OVX) rat skeleton
Assay: Continuous combination therapy protocol in OVX rats, pQCT of femur
Type: in vivo, Sprague-Dawley (S-D) female rats
Details: 4 weeks treatment, EP4 agonist 0.3 mg/kg/d by Alzet pump, E2 0.01 mg/kg/d by pellets
Source text: Prostaglandin E2 (PGE2) restores bone mass by stimulating both bone formation and bone resorption but in favor of bone formation in ovariectomized (OVX) rat skeleton. 5-(3-{2S-[3R-Hydroxy-4-(3-trifluoromethyl-phenyl)-butyl}-5-oxo-pyrrolidin-1-yl}-propyl)-thiophene-2-carboxylic acid, an EP4 receptor selective agonist, can mimic PGE2's systemic bone anabolic effects when given by daily subcutaneous injection. However, like PGE2, slow release delivery of 5-(3-{2S-[3R-hydroxy-4-(3-trifluoromethyl-phenyl)-butyl}-5-oxo-pyrrolidin-1-yl}-propyl)-thiophene-2-carboxylic acid, by Alzet pump may cause bone loss by stimulating both bone resorption and bone formation but in favor of bone resorption in OVX rat skeleton. Estrogen (17-βestradiol) inhibits bone resorption and turnover, thus preventing bone loss in OVX rats. […] Sprague-Dawley (S-D) female rats were sham-operated (n=20) or OVX (n=50) at 3.5 months of age. Three and an half months post-surgery, OVX rats were treated with either vehicle, 5-(3-{2S-[3R-hydroxy-4-(3-trifluoromethyl-phenyl)-butyl}-5-oxo-pyrrolidin-1-yl}-propyl)-thiophene-2-carboxylic acid at 0.3 mg/kg/d (by Alzet pumps in subcutaneous area, […] release rate, for duration of 14 days, replace the pumps at day 15), or 17-βestradiol (E2) at 0.01 mg/kg/d (administered by 30 day release pellets), or combined 5-(3-{2S-[3R-hydroxy-4-(3-trifluoromethyl-phenyl)-butyl}-5-oxo-pyrrolidin-1-yl}-propyl)-thiophene-2-carboxylic acid at 0.3 mg/kg/d (by Alzet pumps in subcutaneous area, […] release rate, for duration of 28 days) and 17-βestradiol (E2) at 0.01 mg/kg/d (administered by 30 day release pellets) for 4 weeks. Total mineral density and cortical bone area of distal femoral metaphysis and femoral shaft were determined by peripheral […] computerized tomography (pQCT) as described previously (Ke H. Z. et al., Lasofoxifene protects against the age-related changes in bone mass, bone strength, and total serum cholesterol in intact aged male rats. J. of Bone and Mineral Research, 2001;16:765-773).

SMILES | change in cortical bone area of distal femoral metaphysis compared with OVX controls | change in cortical bone area of femoral shaft compared with OVX controls | change in total mineral density of distal femoral metaphysis compared with OVX controls | change in total mineral density of femoral shaft compared with OVX controls
C[C@]12CC[C@@H]3c4ccc(O)cc4CC[C@H]3[C@@H]1CC[C@@H]2O [17-βestradiol (E2), 17β-estradiol] | did not cause significant change | no significant change | did not cause significant change | no significant change
O=C(O)c1ccc(CCCN2C(=O)CC[C@@H]2CC[C@@H](O)Cc2cccc(C(F)(F)F)c2)s1 [5-(3-{2S-[3R-Hydroxy-4-(3-trifluoromethyl-phenyl)-butyl]-5-oxo-pyrrolidin-1-yl}-propyl)-thiophene-2-carboxylic acid] | −15% | no significant change | −15% | no significant change
